Reference: the supplement of paper PMC11451515

What was measured:
[1] = system: NOMO1; test: AUC of viability dose-response curve (% viability x log10 dose units); higher = less sensitive; details: 48 h
Outline: (§1)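 Viability of medium-adapted leukemia cells was measured by CellTiter-Glo One luminescence after 48 h at 37°C with library compounds in DMSO. Doses were 11 threefold steps from 47 μM to 0.79 nM, in 1536-well plates at 500 or 1000 cells/well. Signals were normalised per plate to DMSO and cell-free wells and fitted with a four-parameter log-logistic model on log10 dose. Area under the curve was integrated by trapezoidal rule, with curves exceeding full viability scaled and failed quality-control curves removed.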

[2] = system: SEM cells; test: as above; details: 48 h
Outline: as §1

[3] = system: P12-Ichikawa; test: as above; details: 48 h
Outline: as §1

[4] = system: P12-Ichikawa; test: cell viability relative to DMSO control; higher = less cytotoxic; details: HPLM + 10% dialyzed FBS, 48 h
Outline: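 Cells were incubated for 48 h at 37°C before CellTiter-Glo One luminescence was read. The cells were NOMO1 or SEM (500 cells/well) or P12-Ichikawa (1000 cells/well) leukemia cells, adapted for at least four passages in each medium and seeded in 1536-well plates (5 μl). Dosing used library compounds in DMSO applied by pin over 11 threefold points, 47 μM to 0.79 nM. Viability is the per-plate percentage of DMSO wells, with cell-free wells as background.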

[5] = RPMI 5 mM glucose + 10% dialyzed FBS

| Compound | AUC of viability dose-response curve ([1]; HPLM + 10% dialyzed FBS) | AUC of viability dose-response curve ([1]; RPMI 5 mM glucose + 10% FBS) | AUC of viability dose-response curve [1, 5] | AUC of viability dose-response curve ([2]; HPLM + 10% dialyzed FBS) | AUC of viability dose-response curve ([2]; RPMI 5 mM glucose + 10% FBS) | AUC of viability dose-response curve [2, 5] | AUC of viability dose-response curve ([3]; HPLM + 10% dialyzed FBS) | AUC of viability dose-response curve ([3]; RPMI 5 mM glucose + 10% FBS) | AUC of viability dose-response curve [3, 5] | cell viability ([4]; 0.000781 µM) [%] | cell viability ([4]; 0.00234 µM) [%] | cell viability ([4]; 0.00702 µM) [%] | cell viability ([4]; 0.0211 µM) [%] | cell viability ([4]; 0.0632 µM) [%] | cell viability ([4]; 0.19 µM) [%] | cell viability ([4]; 0.569 µM) [%] | cell viability ([4]; 1.71 µM) [%] | cell viability ([4]; 5.12 µM) [%] | cell viability ([4]; 15.4 µM) [%] | cell viability ([4]; 46.1 µM) [%] |
| --- | --- | --- | --- | --- | --- | --- | --- | --- | --- | --- | --- | --- | --- | --- | --- | --- | --- | --- | --- | --- |
| COc1cccc(Nc2c(C(N)=O)cnc3c(C)cc([S+](=O)([O-])c4cccc(C(=O)N(C)C)c4)cc23)c1 | 465 | 472 | 469 | 459 | 466 | 468 | 470 | 472 | 469 |  |  |  |  |  |  |  |  |  |  |  |
| CN1\N=N/C2=C(N=C[N]2C1=O)C(N)=O | 445 | 458 | 450 | 331 | 318 | 306 | 466 | 466 | 452 | 127 | 124 | 125 | 121 | 128 | 125 | 134 | 127 | 128 | 115 | 88.8 |
